Experimental data published in the supplement of paper PMC10331698.
± gives the standard deviation of the averaged measurements.

Assays:
Assay in all cases: level (log10 ratio to DMSO vehicle control); higher = higher biomarker level / cell amount than vehicle control
Conditions in all cases: in DMSO
Perfluoroheptanoic acid = compound: O=C(O)C(F)(F)C(F)(F)C(F)(F)C(F)(F)C(F)(F)C(F)(F)F [Perfluoroheptanoic acid]
Procedure: (§1)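 BioMAP Diversity Plus panel of 12 human primary cell co-culture systems (3C, 4H, LPS, SAg, BT, BF4T, BE3C, CASM3C, HDF3CGF, KF3CT, MyoF, Mphg). Compounds were added 1 h before stimulation and left for 24 h (MyoF 48 h; BT 72 h for soluble read-outs or 6 d for IgG). Biomarkers were read by ELISA, cytotoxicity by SRB, PBMC viability and proliferation by Alamar Blue. Each well value was divided by the mean of 8 DMSO control wells on the same plate and log10 transformed; duplicate blinded samples were tested at 4 concentrations.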

Heptafluorobutyramide = compound: NC(=O)C(F)(F)C(F)(F)C(F)(F)F [Heptafluorobutyramide]
Procedure: as §1

Perfluorodecanoic acid = compound: O=C(O)C(F)(F)C(F)(F)C(F)(F)C(F)(F)C(F)(F)C(F)(F)C(F)(F)C(F)(F)C(F)(F)F [Perfluorodecanoic acid]
Procedure: as §1

[1] = compound: O=C(O)C(F)(F)OC(F)(F)C(F)(F)OC(F)(F)F [Perfluoro-3,6-dioxaheptanoic acid]
Procedure: as §1

Pentafluoropropionamide = compound: NC(=O)C(F)(F)C(F)(F)F [Pentafluoropropionamide]
Procedure: as §1

[2] = compound: C=CC(=O)OCC(F)(F)C(F)(F)C(F)(F)C(F)(F)C(F)(F)C(F)(F)C(F)(F)F [1H,1H-Perfluorooctyl acrylate]
Procedure: as §1

[3] = compound: C=C(C)C(=O)OCCC(F)(F)C(F)(F)C(F)(F)C(F)(F)C(F)(C(F)(F)F)C(F)(F)F [(Perfluoro-5-methylhexyl)ethyl 2-methylprop-2-enoate]
Procedure: as §1

Test System | level (log10) (Perfluoroheptanoic acid; 6700 nM) | level (log10) (Perfluoroheptanoic acid; 20000 nM) | level (log10) (Perfluoroheptanoic acid; 60000 nM) | level (log10) (Heptafluorobutyramide; 6700 nM) | level (log10) (Heptafluorobutyramide; 20000 nM) | level (log10) (Heptafluorobutyramide; 60000 nM) | level (log10) (Perfluorodecanoic acid; 6700 nM) | level (log10) (Perfluorodecanoic acid; 20000 nM) | level (log10) ([1]; 6700 nM) | level (log10) ([1]; 20000 nM) | level (log10) ([1]; 60000 nM) | level (log10) (Pentafluoropropionamide; 6700 nM) | level (log10) (Pentafluoropropionamide; 20000 nM) | level (log10) (Pentafluoropropionamide; 60000 nM) | level (log10) ([2]; 6700 nM) | level (log10) ([2]; 20000 nM) | level (log10) ([2]; 60000 nM) | level (log10) ([3]; 6700 nM) | level (log10) ([3]; 20000 nM)
HDF3CGF:CXCL9/MIG | -0.009 ± 0.0071 | -0.002 ± 0.021 | 0.0165 ± 0.0064 | 0.0055 ± 0.026 | 0.0035 ± 0.019 | -0.0225 ± 0.025 | -0.069 ± 0.048 | -0.27 ± 0.061 | -0.011 ± 0.014 | 0.0145 ± 0.0064 | -0.02 ± 0.047 | -0.016 ± 0.0042 | 0.0095 ± 0.00071 | 0.0015 ± 0.0078 | -0.0265 ± 0.0035 | -0.029 ± 0.03 | -0.0745 ± 0.0078 | 0.0135 ± 0.00071 | 0.0095 ± 0.011
HDF3CGF:MMP-1 | -0.0105 ± 0.012 | 0.0025 ± 0.00071 | 0.0065 ± 0.005 | 0.004 ± 0.011 | -0.01 | 0.001 ± 0.0057 | -0.041 ± 0.0028 | -0.174 ± 0.08 | -0.009 ± 0.0099 | 0.0085 ± 0.013 | -0.014 ± 0.03 | 0.006 ± 0.0085 | -0.011 ± 0.0085 | -0.01 | 0.013 ± 0.034 | 0.0425 ± 0.0078 | 0.0365 ± 0.019 | 0.002 ± 0.0085 | 0.008 ± 0.018
lMphg:CCL3/MIP-1alpha | -0.0265 ± 0.013 | -0.0075 ± 0.0078 | 0.018 ± 0.017 | -0.0235 ± 0.039 | -0.035 ± 0.024 | -0.0015 ± 0.00071 | 0.004 ± 0.013 | -0.0125 ± 0.049 | -0.0185 ± 0.026 | -0.0065 ± 0.012 | -0.0065 ± 0.019 | -0.011 ± 0.011 | -0.0175 ± 0.0064 | 0.017 ± 0.045 | 0.0215 ± 0.028 | 0.04 ± 0.0071 | 0.057 ± 0.0099 | -0.008 ± 0.034 | -0.0125 ± 0.044
KF3CT:IL-1alpha | -0.007 ± 0.018 | 0.016 ± 0.014 | -0.0115 ± 0.0064 | -0.0035 ± 0.0064 | 0.013 ± 0.0057 | -0.0005 ± 0.032 | -0.0535 ± 0.0035 | -0.068 ± 0.0042 | -0.011 ± 0.025 | 0.032 ± 0.03 | -0.1 ± 0.067 | -0.0165 ± 0.005 | -0.034 ± 0.0085 | -0.0105 ± 0.044 | -0.0075 ± 0.022 | -0.001 ± 0.0071 | -0.007 ± 0.0028 | -0.014 ± 0.0028 | -0.0225 ± 0.0035
3C:CD142/Tissue Factor | -0.0065 ± 0.037 | -0.004 ± 0.027 | 0.0285 ± 0.039 | -0.002 ± 0.064 | -0.007 ± 0.082 | -0.0235 ± 0.1 | -0.013 ± 0.013 | -0.029 ± 0.0042 | -0.0295 ± 0.047 | -0.025 ± 0.04 | -0.053 ± 0.0014 | -0.0305 ± 0.032 | -0.0575 ± 0.019 | -0.0205 ± 0.015 | 0.001 ± 0.0057 | 0 ± 0.0014 | -0.0165 ± 0.0078 | 0.0205 ± 0.015 | -0.0295 ± 0.046
lMphg:CD40 | -0.0045 ± 0.018 | -0.0265 ± 0.012 | -0.028 ± 0.027 | -0.021 ± 0.011 | -0.0185 ± 0.037 | -0.0025 ± 0.025 | -0.0025 ± 0.039 | -0.0385 ± 0.05 | -0.0125 ± 0.0035 | 0.0065 ± 0.028 | -0.0055 ± 0.036 | -0.0235 ± 0.022 | -0.017 ± 0.011 | -0.0115 ± 0.013 | -0.0125 ± 0.049 | -0.0125 ± 0.097 | -0.0635 ± 0.039 | 0.0035 ± 0.011 | -0.0085 ± 0.0078
HDF3CGF:CXCL11/I-TAC | -0.0165 ± 0.013 | 0.003 ± 0.011 | 0.01 ± 0.016 | 0.0015 ± 0.00071 | -0.0015 ± 0.0092 | -0.0305 ± 0.015 | 0.046 ± 0.0014 | -0.469 ± 0.28 | -0.017 ± 0.0057 | -0.0035 ± 0.022 | -0.0035 ± 0.012 | 0.0135 ± 0.0035 | 0.0195 ± 0.018 | 0.022 ± 0.024 | -0.017 ± 0.011 | -0.0275 ± 0.037 | -0.063 ± 0.011 | -0.013 ± 0.0014 | -0.0155 ± 0.013
